Test results as given in article PMC8345109, “Optimization of New Catalytic Topoisomerase II Inhibitors as an Anti-Cancer Therapy” (Cancers, 2021).
Values after ≈ are worked out from the molar mass of the structure shown. Where two headings read alike, the source gives them in different places.

What was measured:
Solubility by LC/MS/MS = type: physicochemical; conditions: kinetic from dmso stock
Method: Stock solutions of the tested compounds at 50 mM in dimethyl sulfoxide (DMSO) were diluted 50-fold in methanol (MeOH), Roswell Park Memorial Institute-1640 (RPMI1640), plus 5% charcoal-stripped serum (CSS) from Sigma-Aldrich (media) and phosphate-buffered saline (PBS), and vortexed at room temperature for 1 h at 800 rpm. The resulting solutions were centrifuged at 20,000× g for 5 min, and the saturated supernatants were diluted 40-fold in acetonitrile. The resultant solutions were subjected to LC/MS/MS to determine the solubility.

TOP2B = TOP2B (Homo sapiens, UniProt Q02880); assay: K-DNA decatenation assay, TOP2B; type: biochemical; conditions: 0.01-200 uM, three biological repeats
TOP2B, sequence (Q02880 whole entry): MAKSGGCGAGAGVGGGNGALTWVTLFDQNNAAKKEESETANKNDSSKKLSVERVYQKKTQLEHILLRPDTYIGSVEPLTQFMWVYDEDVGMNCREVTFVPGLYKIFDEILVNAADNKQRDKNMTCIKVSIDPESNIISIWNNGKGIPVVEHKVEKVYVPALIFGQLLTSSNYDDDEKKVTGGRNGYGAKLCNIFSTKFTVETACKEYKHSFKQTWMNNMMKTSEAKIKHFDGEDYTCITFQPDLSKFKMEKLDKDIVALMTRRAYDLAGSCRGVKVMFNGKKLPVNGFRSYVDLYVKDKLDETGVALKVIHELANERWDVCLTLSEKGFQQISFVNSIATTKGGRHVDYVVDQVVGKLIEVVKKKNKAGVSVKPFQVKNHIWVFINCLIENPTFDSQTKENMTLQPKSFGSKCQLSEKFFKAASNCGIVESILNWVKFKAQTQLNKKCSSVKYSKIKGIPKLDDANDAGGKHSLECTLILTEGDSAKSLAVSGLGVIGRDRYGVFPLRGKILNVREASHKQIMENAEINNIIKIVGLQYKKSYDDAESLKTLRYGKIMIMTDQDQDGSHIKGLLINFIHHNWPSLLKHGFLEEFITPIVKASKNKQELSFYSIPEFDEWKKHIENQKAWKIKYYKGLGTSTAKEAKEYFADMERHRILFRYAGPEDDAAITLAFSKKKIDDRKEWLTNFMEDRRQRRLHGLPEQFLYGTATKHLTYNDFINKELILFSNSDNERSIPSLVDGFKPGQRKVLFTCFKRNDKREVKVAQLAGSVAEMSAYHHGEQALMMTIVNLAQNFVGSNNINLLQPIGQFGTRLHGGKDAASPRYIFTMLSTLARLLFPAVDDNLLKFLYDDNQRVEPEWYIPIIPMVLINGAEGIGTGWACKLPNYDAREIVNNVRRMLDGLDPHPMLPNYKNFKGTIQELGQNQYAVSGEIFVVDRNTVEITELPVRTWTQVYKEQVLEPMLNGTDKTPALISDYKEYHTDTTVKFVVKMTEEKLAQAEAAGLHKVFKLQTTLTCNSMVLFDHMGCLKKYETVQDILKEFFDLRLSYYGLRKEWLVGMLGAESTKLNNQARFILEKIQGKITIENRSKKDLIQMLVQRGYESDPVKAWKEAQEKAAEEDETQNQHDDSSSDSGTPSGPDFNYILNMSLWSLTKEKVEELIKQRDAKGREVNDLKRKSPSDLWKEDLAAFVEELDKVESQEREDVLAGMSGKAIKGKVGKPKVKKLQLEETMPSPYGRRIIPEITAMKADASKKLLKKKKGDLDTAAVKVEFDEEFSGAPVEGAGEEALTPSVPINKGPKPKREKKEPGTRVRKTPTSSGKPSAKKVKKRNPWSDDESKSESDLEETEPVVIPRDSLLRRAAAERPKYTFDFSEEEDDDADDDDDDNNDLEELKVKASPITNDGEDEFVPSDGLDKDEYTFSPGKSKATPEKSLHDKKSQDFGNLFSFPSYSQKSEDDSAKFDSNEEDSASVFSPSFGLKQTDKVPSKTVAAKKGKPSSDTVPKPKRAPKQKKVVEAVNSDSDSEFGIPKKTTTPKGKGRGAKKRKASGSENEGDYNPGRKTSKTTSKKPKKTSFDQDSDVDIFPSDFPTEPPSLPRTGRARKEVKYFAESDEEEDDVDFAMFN
Method: Figure 3 T637 and T638 are TOP2B inhibitors. (A) K-DNA decatenation assays and (B) supercoiled plasmid DNA relaxation assays are used to measure TOP2B activity in the presence of 0.01–200 uM T637 or T638. Three biological repeats were performed with each concentration of the compounds, and the densitometry of the D-DNA bands from (A) and the SC bands from (B) was used to establish an inhibition curve for IC50 calculation.

salmon sperm DNA = assay: Ethidium bromide displacement assay; type: binding; conditions: 100 µg/mL salmon sperm DNA, 2 µg/mL ethidium bromide
Method: (§1) (A) Ethidium bromide displacement assays were performed by mixing 100 µg/mL salmon sperm DNA with −/+2 µg/mL ethidium bromide and the indicated compounds. Reactions were subjected to fluorescence emission of 590 nm and excitation of 535 nm. Obtained signals were detected by using the Multimode Microplate Reader (Infinite F500). […] Reactions were subjected to 5–20% LED/excitation power and medium MST power using premium capillaries. Obtained signals were detected by using the Monolith NT.115 system. The change in thermophoresis is expressed as the change in the normalized fluorescence (ΔFnorm). MST assays were repeated with two control compounds, enzalutamide (Enza) and merbarone.

human TOP2A(431-1193) = molecular target: T1, human TOP2A(431-1193) (Homo sapiens, UniProt P11388); assay: Microscale thermophoresis (MST) binding assay; conditions: 5 nM NT647-labelled TOP2A(431-1193), 0.015-500 µM compound; read-out: Kd, direct TOP2-compound binding (MST)
T1 construct: 6xHis (N); made in house; host or cells: E. coli BL21 (DE3)
T1 sequence (P11388 431-1193): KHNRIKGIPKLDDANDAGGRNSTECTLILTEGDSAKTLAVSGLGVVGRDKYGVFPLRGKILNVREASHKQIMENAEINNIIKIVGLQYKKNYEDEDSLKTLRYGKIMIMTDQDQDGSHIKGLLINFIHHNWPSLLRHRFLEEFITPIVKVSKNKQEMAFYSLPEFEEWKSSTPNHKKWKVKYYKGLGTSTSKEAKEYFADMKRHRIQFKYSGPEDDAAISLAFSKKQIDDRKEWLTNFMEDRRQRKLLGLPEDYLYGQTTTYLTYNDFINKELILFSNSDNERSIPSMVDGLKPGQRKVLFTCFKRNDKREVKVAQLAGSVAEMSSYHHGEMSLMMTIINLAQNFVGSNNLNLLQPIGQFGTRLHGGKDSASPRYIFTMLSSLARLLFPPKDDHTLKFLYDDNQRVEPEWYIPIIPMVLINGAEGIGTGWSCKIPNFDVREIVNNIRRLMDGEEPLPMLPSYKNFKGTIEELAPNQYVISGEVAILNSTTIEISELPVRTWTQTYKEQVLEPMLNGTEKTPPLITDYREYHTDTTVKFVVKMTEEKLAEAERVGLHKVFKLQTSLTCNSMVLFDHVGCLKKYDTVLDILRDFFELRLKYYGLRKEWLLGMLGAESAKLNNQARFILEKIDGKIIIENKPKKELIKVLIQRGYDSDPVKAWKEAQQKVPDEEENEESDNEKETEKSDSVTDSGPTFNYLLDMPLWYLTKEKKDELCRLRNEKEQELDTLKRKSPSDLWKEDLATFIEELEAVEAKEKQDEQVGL
Method: It was transformed into BL21 (DE3) E. coli cells and induced by 0.5 mM IPTG for 16 h at 16 °C. Cells were lysed by sonication and protein purification was by chromatography with the Ni-NTA beads (Invitrogen), followed by a size exclusion chromatography (Superdex 200). […] A serial dilution of the inhibitors was prepared with 100% DMSO and subsequently mixed with the labeled fluorescent protein in the assay buffer (20 mM Tris pH 8.0, 100 mM NaCl, 0.1% NP40, 0.2 mM TCEP, and 0.1 mM PMSF) at the final concentrations of 0.015–500 uM. The final concentration of the protein was 5 nM. The labeled protein and small molecules mix were allowed to incubate in the dark at room temperature for 5 min before filling the capillaries. MST assays were performed with 5–20% LED/excitation power and medium MST power using premium capillaries for Monolith NT.115. The data for the estimation of Kd were analyzed using MO Affinity Analysis software from Nanotemper.
as §1

[1] = Crystal formation (precipitation) in cell cultures; type: physicochemical; conditions: up to 100 uM
Method: Both T637 and T638 have improved solubility in aqueous solution and culture media compared to T60 (Figure 1). […] When cells are growing in the culture media and treated with T60 at concentrations ≥50 uM for two days, T60 will form crystals, likely due to the altered pH values by the cells that induce T60 precipitation. […] These improvements in solubility allow higher doses of compounds to be used to treat cancer cells to reach maximum tumor suppression.

in vitro = conditions: mouse, liver microsomes, pH 7.4
Method: The reaction was initiated by adding NADPH, followed by incubation at 37 °C. […] The samples were then vortexed and centrifuged at 16,000 rpm for 10 min at 4 °C. The supernatants were collected and analyzed by LC/MS/MS to determine the remaining percentage and the half-life (t1/2) by integrating compound peaks and fitting the resulting AUC values and time points to a one-phase decay equation.

[2] = tested on: cervical cancer line Hela; assay: Hela cell growth (Incucyte); conditions: Homo sapiens, 120 h, read-out: Cell growth inhibition
Method: (A) K562 cells were treated with 0, 0.5, 1, 5, 10, 15, and 20 uM of T60 or 0, 0.5, 1, 5, 10, 15, 20, 50, and 100 uM of T637 and T638 for 24, 48, or 72 h. […] (B) NCI-H446 small cell lung cancer line and Hela cervical cancer line were treated with 0, 0.5, 1, 5, 10, 15, and 20 uM of T60 or 0, 0.5, 1, 5, 10, 15, 20, 50, and 100 uM of T637 and T638 for five days. Cell growth rates were measured by using Incucyte^TM. (C) K562 cells were treated with 0, 5, 10, 15, and 20 uM of T60, T637, or T638 for 48 h. Cytotoxicity was evaluated by measuring the LDH levels from the culture media. (D) K562 cells were treated with the vehicle or 10–20 µM of etoposide, T60, T637, or T638 for 4 h. Immunoblotting measured p-H2AXγ levels in cells with vinculin as a loading control.

full-length TOP2A [3] = molecular target: T2, full-length TOP2A (Homo sapiens, UniProt P11388); assay: EMSA, full-length TOP2A with 5ZRF DNA oligo; type: binding; parameters: EMSA was performed by purified full-length TOP2A or TOP2B proteins; conditions: 200 µM compound, 300 nM protein, 100 nM oligo
T2 sequence (P11388 whole entry): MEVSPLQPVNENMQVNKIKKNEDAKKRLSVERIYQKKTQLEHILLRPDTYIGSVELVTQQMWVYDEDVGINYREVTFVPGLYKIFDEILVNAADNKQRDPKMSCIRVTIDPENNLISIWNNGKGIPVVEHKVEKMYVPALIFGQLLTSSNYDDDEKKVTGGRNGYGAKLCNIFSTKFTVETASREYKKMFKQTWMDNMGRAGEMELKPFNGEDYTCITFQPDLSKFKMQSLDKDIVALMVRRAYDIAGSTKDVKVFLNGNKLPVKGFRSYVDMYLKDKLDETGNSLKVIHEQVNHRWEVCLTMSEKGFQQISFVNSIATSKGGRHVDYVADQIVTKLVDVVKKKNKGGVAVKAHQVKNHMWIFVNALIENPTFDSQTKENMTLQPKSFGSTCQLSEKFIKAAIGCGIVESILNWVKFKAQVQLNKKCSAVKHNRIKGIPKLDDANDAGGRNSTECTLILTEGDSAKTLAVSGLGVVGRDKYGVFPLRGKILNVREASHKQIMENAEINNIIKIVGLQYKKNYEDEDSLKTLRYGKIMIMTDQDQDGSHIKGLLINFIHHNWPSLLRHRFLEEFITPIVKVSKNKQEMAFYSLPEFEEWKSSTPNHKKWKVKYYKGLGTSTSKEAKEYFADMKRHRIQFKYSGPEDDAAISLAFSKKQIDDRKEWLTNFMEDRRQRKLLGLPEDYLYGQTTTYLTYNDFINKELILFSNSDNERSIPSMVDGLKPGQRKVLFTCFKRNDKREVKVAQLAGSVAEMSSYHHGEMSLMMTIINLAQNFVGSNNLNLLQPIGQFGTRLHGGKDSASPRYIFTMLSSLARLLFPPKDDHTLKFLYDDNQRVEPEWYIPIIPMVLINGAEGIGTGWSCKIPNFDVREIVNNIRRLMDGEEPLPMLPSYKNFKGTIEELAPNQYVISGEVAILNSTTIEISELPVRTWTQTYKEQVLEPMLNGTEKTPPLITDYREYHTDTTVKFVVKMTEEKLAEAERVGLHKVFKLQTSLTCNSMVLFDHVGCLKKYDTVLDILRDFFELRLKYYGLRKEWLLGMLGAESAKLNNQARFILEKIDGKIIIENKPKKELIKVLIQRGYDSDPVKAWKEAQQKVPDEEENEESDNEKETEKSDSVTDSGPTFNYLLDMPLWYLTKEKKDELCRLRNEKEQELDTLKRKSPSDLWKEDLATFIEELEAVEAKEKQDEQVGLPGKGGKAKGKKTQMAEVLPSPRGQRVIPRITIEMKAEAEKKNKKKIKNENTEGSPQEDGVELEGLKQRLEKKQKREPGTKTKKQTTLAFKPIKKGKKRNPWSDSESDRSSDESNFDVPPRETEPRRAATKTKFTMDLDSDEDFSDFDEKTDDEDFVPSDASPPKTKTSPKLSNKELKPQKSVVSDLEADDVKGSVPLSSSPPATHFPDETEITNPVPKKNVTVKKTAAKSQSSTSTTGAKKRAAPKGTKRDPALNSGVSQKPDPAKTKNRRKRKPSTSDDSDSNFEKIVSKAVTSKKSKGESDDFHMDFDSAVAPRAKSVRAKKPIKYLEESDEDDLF
Method: (§2) (A) EMSA was performed by purified full-length TOP2A or TOP2B proteins at a contraction of 300 nM with IRDay700 labeled 5ZRF DNA oligo at a concentration of 100 nM in the presence of −/+200 µM of ICRF193, T60, T637, and T638. […] Reactions were subjected to fluorescence […], which were detected by using the Multimode Microplate Reader (Infinite F500). (D) DNA cleavage assays were performed using full-length human TOP2A and TOP2B incubated with the supercoiled pHOT plasmid in the presence of 200 µM of etoposide plus 1, 100, or 200 µM of ICRF193, T60, T637, and T638. Reactions were separated on a DNA gel with ethidium bromide. All experiments were repeated three times, and one representative image was shown. Note: N, nicked DNA; L, linear DNA; and SC, supercoiled DNA.

full-length TOP2B [4] = molecular target: T3, full-length TOP2B (Homo sapiens, UniProt Q02880); assay: EMSA, full-length TOP2B with 5ZRF DNA oligo; type: binding; parameters: EMSA was performed by purified full-length TOP2A or TOP2B proteins; conditions: 200 µM compound, 300 nM protein, 100 nM oligo
T3 sequence (Q02880 whole entry): as the sequence (Q02880 whole entry) above
Method: as §2

full-length TOP2A [5] = molecular target: T2, full-length TOP2A; assay: DNA cleavage assay, TOP2A; type: biochemical; parameters: DNA cleavage assays were performed using full-length human TOP2A and TOP2B; conditions: 200 µM etoposide plus 1, 100 or 200 µM compound, pHOT plasmid
Method: as §2

full-length TOP2B [6] = molecular target: T3, full-length TOP2B; assay: DNA cleavage assay, TOP2B; type: biochemical; parameters: DNA cleavage assays were performed using full-length human TOP2A and TOP2B; conditions: 200 µM etoposide plus 1, 100 or 200 µM compound, pHOT plasmid
Method: as §2

solubility at 1 h (Solubility by LC/MS/MS; RPMI1640 plus 5% charcoal-stripped serum, plasma or biological fluid, cell culture media with serum, read-out: Solubility Media/FBS): 485 µM | solubility at 1 h (Solubility by LC/MS/MS; methanol, organic solvent or mixture, methanol, read-out: Solubility Methanol): > 1000 µM | solubility at 1 h (Solubility by LC/MS/MS; phosphate-buffered saline, aqueous buffer, PBS, read-out: Solubility PBS): 142 µM (≈ 47.8 µg/mL) | IC50 (TOP2B): ~3.8 µM | Fluorescence induced by the ethidium bromide/DNA complex reduced by increasing doses (DNA intercalation) (salmon sperm DNA): not | Kd (human TOP2A(431-1193)): ~87 µM | Crystal formation in cell cultures, in words [1]: no crystal formation | half-life at 1 uM (in vitro): > 16.7 h | microsomal CLint at 1 uM (in vitro): 2 µL/min/mg | Block of TOP2A-DNA oligo complex formation (EMSA) (full-length TOP2A [3]): block | Block of TOP2B-DNA oligo complex formation (EMSA) (full-length TOP2B [4]): block
Compound: Nc1cc(Nc2ccccc2)ccc1NC(=O)c1ccc[nH]c1=S [T638]
inhibition at 100 µM [2]: 100% | Prevention of etoposide-induced DNA cleavage, TOP2A (full-length TOP2A [5]): did prevent etoposide-induced DNA cleavage | Prevention of etoposide-induced DNA cleavage, TOP2B (full-length TOP2B [6]): did prevent etoposide-induced DNA cleavage
